Drawing on ChEMBL document CHEMBL1158334, “Two new chymotrypsin inhibitors isolated from the Cyanobacterium Microcystis aeruginosa NIES-88” (J Nat Prod, 2005), this text covers IC50 for 17 compounds.

As a reminder, the IC50 is the point on the concentration scale where inhibition reaches its midpoint. High values mean lower potency, low ones higher potency.

The nature of experiment [1]: Inhibition of trypsin.
Experiment [2] in a line: Inhibition of chymotrypsin.

A value given as a limit tells only on which side of the number the result lay.

Consider `CC(C)CC(NC(=O)[C@H](O)COS(=O)(=O)O)C(=O)N[C@@H]1C(=O)N[C@@H](CCCNC(=N)N)C(=O)N[C@H]2CC[C@@H](O)N(C2=O)[C@@H](CC(C)C)C(=O)N(C)[C@@H](Cc2ccc(O)cc2)C(=O)N[C@@H](C(C)C)C(=O)O[C@@H]1C` (single isomer, unassigned), for which the concentration for half-maximal inhibition (IC50) in experiment [1] was 0.001 µM; in experiment [2], above 100 µM.
For `CCCC(=O)N[C@@H](Cc1ccc(O)cc1)C(=O)N[C@@H](CCC(=O)N[C@@H]1C(=O)N[C@@H](CCC(=O)O)C(=O)N[C@H]2CC[C@@H](O)N(C2=O)[C@@H](C(C)C)C(=O)N(C)[C@@H](Cc2ccccc2)C(=O)N[C@@H]([C@@H](C)CC)C(=O)O[C@@H]1C)C(=O)O` [MICROPEPTIN 88 B] the same measures were above 100 µM and above 100 µM.
For `CCCC(=O)N[C@@H](Cc1ccc(O)cc1)C(=O)N[C@@H](CCC(=O)N[C@@H]1C(=O)N[C@@H](Cc2ccc(O)cc2)C(=O)N[C@H]2CC[C@@H](O)N(C2=O)[C@@H](C(C)C)C(=O)N(C)[C@@H](Cc2ccccc2)C(=O)N[C@@H]([C@@H](C)CC)C(=O)O[C@@H]1C)C(=O)O` [MICROPEPTIN 88 C] the same measures were above 100 µM and 4.6 µM.
Take `CCCC(=O)N[C@@H](Cc1ccc(O)cc1)C(=O)N[C@@H](CCC(=O)N[C@@H]1C(=O)N[C@@H](C[C@H]2C=C[C@H](O)CC2)C(=O)N[C@H]2CC[C@@H](O)N(C2=O)[C@@H](C(C)C)C(=O)N(C)[C@@H](Cc2ccccc2)C(=O)N[C@@H]([C@@H](C)CC)C(=O)O[C@@H]1C)C(=O)O` [MICROPEPTIN 88 D]: the IC50 in experiment [1] is above 100 µM; in experiment [2], 9 µM.
The corresponding values for `CCCC(=O)N[C@@H](Cc1ccc(O)cc1)C(=O)N[C@@H](CCC(=O)N[C@@H]1C(=O)N[C@@H](CC(C)C)C(=O)N[C@H]2CC[C@@H](O)N(C2=O)[C@@H](C(C)C)C(=O)N(C)[C@@H](Cc2ccccc2)C(=O)N[C@@H]([C@@H](C)CC)C(=O)O[C@@H]1C)C(=O)O` [MICROPEPTIN 88 E] are above 100 µM and 5 µM.
The corresponding values for `CCCC(=O)N[C@@H](Cc1ccc(O)cc1)C(=O)N[C@@H](CCC(=O)N[C@@H]1C(=O)N[C@@H](Cc2ccc(O)cc2)C(=O)N[C@H]2CC[C@@H](O)N(C2=O)[C@@H](C(C)C)C(=O)N(C)[C@@H](Cc2ccccc2)C(=O)N[C@@H]([C@@H](C)CC)C(=O)O[C@@H]1C)C(=O)OC` [MICROPEPTIN 88 F] are above 100 µM and 3.4 µM.
The corresponding values for `CC[C@H](C)[C@@H]1NC(=O)[C@H](Cc2ccccc2)N(C)C(=O)[C@H](C(C)C)N2C(=O)[C@H](CC[C@H]2O)NC(=O)[C@H](Cc2ccc(O)cc2)NC(=O)[C@@H](NC(=O)CC[C@H](NC(=O)[C@H](Cc2ccc(O)cc2)NC(C)=O)C(=O)O)[C@@H](C)OC1=O` [MICROPEPTIN 88 Y] are above 100 µM and 1.3 µM.
Regarding `CC(C)[C@@H]1NC(=O)[C@H](Cc2ccc(O)cc2)N(C)C(=O)[C@H](Cc2ccccc2)N2C(=O)[C@H](CC[C@H]2O)NC(=O)[C@H](CCCNC(=N)N)NC(=O)[C@@H](NC(=O)[C@@H](O)COS(=O)(=O)O)[C@@H](C)OC1=O` [MICROPEPTIN 90], the IC50 in experiment [1] is 0.02 µM; in experiment [2], above 100 µM.
The corresponding values for `CCCCCCCC(=O)N[C@@H](CCC(=O)O)C(=O)N[C@@H]1C(=O)N[C@@H](CCCCN)C(=O)N[C@H]2CC[C@@H](O)N(C2=O)[C@@H](CC(C)C)C(=O)N(C)[C@@H](Cc2ccc(O)cc2)C(=O)N[C@@H](C(C)C)C(=O)O[C@@H]1C` [MICROPEPTIN A] are 0.07 µM and above 100 µM.
For `CCCCCC(=O)N[C@@H](CC(=O)O)C(=O)N[C@@H]1C(=O)N[C@@H](CCCCN)C(=O)N[C@H]2CC[C@@H](O)N(C2=O)[C@@H]([C@@H](C)CC)C(=O)N(C)[C@@H](Cc2ccc(O)cc2)C(=O)N[C@@H](C(C)C)C(=O)O[C@@H]1C` [MICROPEPTIN SD944] the same measures were 8.5 µM and above 100 µM.
Turning to `CCCCCC(=O)N[C@@H](CC(=O)O)C(=O)N[C@@H]1C(=O)N[C@@H](Cc2ccc(O)cc2)C(=O)N[C@H]2CC[C@@H](O)N(C2=O)[C@@H]([C@@H](C)CC)C(=O)N(C)[C@@H](Cc2ccc(O)cc2)C(=O)N[C@@H](C(C)C)C(=O)O[C@@H]1C` [MICROPEPTIN SD979], the IC50 in experiment [1] was above 100 µM; in experiment [2], 2.5 µM.
For `CCCCCC(=O)N[C@@H](CC(=O)O)C(=O)N[C@@H]1C(=O)N[C@@H](CCCNC(=N)N)C(=O)N[C@H]2CC[C@@H](O)N(C2=O)[C@@H]([C@@H](C)CC)C(=O)N(C)[C@@H](CC(=O)c2ccccc2N)C(=O)N[C@@H](C(C)C)C(=O)O[C@@H]1C` [MICROPEPTIN SD999] the same measures were 4 µM and above 100 µM.
The corresponding values for `CCCCCC(=O)N[C@@H](CC(=O)O)C(=O)N[C@@H]1C(=O)N[C@@H](Cc2ccc(O)cc2)C(=O)N[C@H]2CC[C@@H](O)N(C2=O)[C@@H]([C@@H](C)CC)C(=O)N(C)[C@@H](Cc2c[nH]c3ccccc23)C(=O)N[C@@H](C(C)C)C(=O)O[C@@H]1C` [MICROPEPTIN SD1002] are above 100 µM and 3.2 µM.
For `CC[C@H](C)[C@@H]1NC(=O)[C@H](Cc2ccc(O)cc2)N(C)C(=O)[C@H](Cc2ccccc2)N2C(=O)[C@H](CC[C@H]2O)NC(=O)[C@H](Cc2ccccc2)NC(=O)[C@@H](NC(=O)[C@@H](O)COP(=O)(O)O)[C@@H](C)OC1=O` [MICROPEPTIN T 20] the same measures were above 100 µM and 2500 µM.
With `CC[C@H](C)[C@H](NC(=O)[C@H](O)Cc1ccc(O)cc1)C(=O)N[C@@H](CCO)C(=O)N[C@@H]1C(=O)N[C@@H](CCO)C(=O)N[C@H]2CC[C@@H](O)N(C2=O)[C@@H](Cc2ccccc2)C(=O)N(C)[C@@H](Cc2ccc(O)cc2)C(=O)N[C@@H](C(C)C)C(=O)O[C@@H]1C` [NOSTOCYCLIN], the IC50 in experiment [1] and in experiment [2] was above 100 µM each time.
Take `CC[C@H](C)[C@@H]1NC(=O)[C@H](Cc2ccc(O)cc2)N(C)C(=O)[C@H]([C@H](C)O)N2C(=O)[C@H](CC[C@H]2O)NC(=O)[C@H](CC(C)C)NC(=O)[C@@H](NC(=O)[C@H](CCC(N)=O)NC(=O)[C@H](CCc2ccc(O)cc2)NC(=O)[C@H](O)CO)[C@@H](C)OC1=O` [OSCILLAPEPTIN G]: the concentration for half-maximal inhibition (IC50) in experiment [1] is above 100 µM; in experiment [2], 4 µM.
For `CC[C@H](C)[C@@H]1NC(=O)[C@H](Cc2ccc(OC)cc2)N(C)C(=O)[C@H]([C@@H](C)CC)N2C(=O)[C@H](CC[C@H]2O)NC(=O)[C@H](CCc2ccc(O)cc2)NC(=O)[C@@H](NC(=O)[C@H](CCc2ccc(O)cc2)NC(=O)[C@@H](COS(=O)(=O)O)OC)[C@@H](C)OC1=O` [OSCILLAPEPTIN] the same measures were above 100 µM and 1.9 µM.
